Experimental findings from patent US11040976B2, “Substrate selective inhibitors of insulin-degrading enzyme (IDE) and uses thereof” (President and Fellows of Harvard College, priority 2015, dated 2021) are described below.

Structures can show the parent of a compound that is named as a salt. Some results are limits rather than exact numbers.

The first assay addresses T1, recombinant human IDE42-1019 (Homo sapiens, UniProt P14735).
T1 construct: recombinant human IDE42-1019 (R&D Systems); purchased R&D Systems
T1 sequence (P14735 42-1019): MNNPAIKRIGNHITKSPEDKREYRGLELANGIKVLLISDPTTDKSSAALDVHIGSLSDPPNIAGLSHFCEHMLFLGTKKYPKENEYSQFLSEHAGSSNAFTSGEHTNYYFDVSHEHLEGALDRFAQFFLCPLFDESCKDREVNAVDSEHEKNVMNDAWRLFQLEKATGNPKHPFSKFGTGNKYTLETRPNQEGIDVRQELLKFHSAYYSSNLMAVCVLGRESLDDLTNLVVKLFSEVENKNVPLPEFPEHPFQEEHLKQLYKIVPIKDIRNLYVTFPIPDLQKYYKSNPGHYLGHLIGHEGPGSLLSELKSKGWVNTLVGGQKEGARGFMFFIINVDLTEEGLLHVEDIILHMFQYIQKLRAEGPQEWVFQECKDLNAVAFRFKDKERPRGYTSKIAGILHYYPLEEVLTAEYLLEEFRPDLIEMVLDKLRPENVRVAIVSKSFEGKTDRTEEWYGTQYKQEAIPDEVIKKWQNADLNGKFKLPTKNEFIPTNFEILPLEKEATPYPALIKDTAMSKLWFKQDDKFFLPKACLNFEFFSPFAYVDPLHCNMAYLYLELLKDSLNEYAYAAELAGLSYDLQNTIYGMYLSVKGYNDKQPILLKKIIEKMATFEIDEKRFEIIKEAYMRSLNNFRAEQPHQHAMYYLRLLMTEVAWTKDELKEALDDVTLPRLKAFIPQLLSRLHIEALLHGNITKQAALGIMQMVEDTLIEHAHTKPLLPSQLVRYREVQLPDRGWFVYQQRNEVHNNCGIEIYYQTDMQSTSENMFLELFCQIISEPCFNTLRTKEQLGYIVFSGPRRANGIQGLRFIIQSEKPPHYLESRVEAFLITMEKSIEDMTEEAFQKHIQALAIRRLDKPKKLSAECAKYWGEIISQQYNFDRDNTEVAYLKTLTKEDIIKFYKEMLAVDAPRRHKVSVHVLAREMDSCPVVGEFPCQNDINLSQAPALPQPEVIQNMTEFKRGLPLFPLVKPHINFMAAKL
Nature of the assay: Protease assay with fluorogenic peptide substrate Mca-[…](Dnp)-OH. It counts as biochemical. The conditions noted are these: fluorogenic peptide Mca-RPPGFSAFK(Dnp)-OH; apparent IC50 for compounds with submaximal inhibition; read-out: IC50 (μM) Proteolysis. As to the method:
The proteases IDE42-1019, recombinant human IDE42-1019 (R&D Systems), neprilysin (R&D), and angiotensin-converting enzyme (R&D) were assayed using the fluorophore/quencher-tagged peptide substrate Mca-[…](Dnp)-OH (SEQ ID NO: 24) (R&D) according to the manufacturer's instructions and using the recommended buffers (fluorophore Mca=(7-methoxycourmarin-4-yl)acetyl and quencher Dnp=2,4-dinitrophenyl). For IDE the recommended buffer is 50 mM Tris pH 7.5, 1 M NaCl. The enzyme mixtures (48 μL) were transferred to a 96-well plate and combined with 2 μL of inhibitor in DMSO solutions, in 3-fold dilution series. The mixtures were allowed to equilibrate for 10 minutes and the enzymatic reaction was started by addition of substrate peptide in assay buffer (50 μL), mixed, and monitored on a fluorescence plate reader (excitation at 320 nm, emission at 405 nm). Similarly, thimet oligopeptidase (R&D) and neurolysin (R&D) were assayed using substrate Mca-PLGPK(Dnp)-OH (SEQ ID NO: 25) (R&D) according to the manufacturer's instructions and using the recommended buffers. Matrix metalloproteinase-1 (R&D) was activated and assayed according to the manufacturer's instructions with substrate Mca-KPLGL-Dpa-AR-NH2 (SEQ ID NO: 20) (R&D) (quencher DPA=N-3-(2,4,dinitrophenyl)-L-2,3-diaminopropionyl). All assay data points were obtained in duplicate.
In the case of `Cc1cccc(-c2ccc(C3CCN(S(=O)(=O)c4cccc5c(N(C)C)cccc45)CC3)cc2)c1C` [A11], the IC50 amounted to 10 µM. Still for that read-out and setting: then `Cc1c(F)ccc(-c2ccc([C@@H]3[C@@H](CO)N4CCCCN(S(=O)(=O)c5nccn5C)C[C@@H]34)cc2)c1C` [JP-43], with 0.004 µM; and `Cc1cccc(-c2ccc(C3CCN(S(=O)(=O)N4CC(C)OC(C)C4)CC3)cc2)c1C` (stereo not drawn) [A19], with 4 µM; and `COc1ccccc1-c1ccc([C@@H]2[C@@H](C#N)N(C(=O)CN(C)C)[C@H]2CO)cc1` [D6], with 5 µM. Still for that read-out and setting: the figure for `Cc1cccc(-c2ccc(C3CCN(Cc4ccc5ccccc5n4)CC3)cc2)c1C` [A39] is 12 µM; for `O=C(NC1CCCC1)N1CCCCN2[C@@H](CO)[C@H](c3ccc(/C=C/c4ccccc4)cc3)[C@@H]2C1` [compound 346] it is 1.5 µM; for `Cc1ccccc1S(=O)(=O)N1CCCCN2[C@H](CO)[C@@H](c3ccc(-c4cccc(F)c4C(F)(F)F)cc3)[C@@H]2C1` [K23] it is 0.3 µM.

In the case of `Cc1c(Cl)cccc1-c1ccc([C@H]2C3CN(S(=O)(=O)c4ccccc4C(F)(F)F)C/C=C\CN3[C@@H]2CO)cc1` (stereo partly drawn) [K22], the IC50 came out at 0.01 µM. Same read-out and setting: then `Cc1cccc(-c2ccc([C@H]3C4CN(S(=O)(=O)c5cnc(C)n5C)C/C=C\CN4[C@@H]3CO)cc2)c1C` (stereo partly drawn) [JP-S18], with 0.002 µM.

Regarding `Cc1cccc(-c2ccc(C3CCN(C(=O)Oc4cccc5ccccc45)CC3)cc2)c1C` [A29], the IC50 was above 50 µM. On the same count and under the same terms, then `Cc1cccc(-c2ccc(C3CCN(C(=O)c4ccc5nccnc5c4)CC3)cc2)c1C` [J17], with 0.2 µM; and `Cc1cccc(-c2ccc(C3CCN(C(=O)c4cccc(OCc5ccccc5)c4)CC3)cc2)c1C` [A22], with 1 µM.

Turning to `CCCn1nccc1S(=O)(=O)N1C/C=C\CN2C(C1)[C@H](c1ccc(-c3cccc(C)c3C)cc1)[C@H]2CO` (stereo partly drawn) [JP-S16], the IC50 came to 0.03 µM. Take `Cc1cccc(-c2ccc([C@@H]3[C@@H](CO)N4C/C=C\CN(S(=O)(=O)c5ccccc5C)C[C@@H]34)cc2)c1` [B1]: the IC50 is 0.2 µM. Same read-out and setting: then `Cc1cccc(-c2ccc([C@@H]3[C@@H](CF)N4CCCCN(S(=O)(=O)c5ccccc5C(F)(F)F)C[C@@H]34)cc2)c1C` [JP-18 TFA salt], with 0.01 µM.

Regarding `COc1cc(N)ccc1S(=O)(=O)N1CCCCN2[C@H](CO)[C@@H](c3ccc(-c4cccc(C)c4C)cc3)[C@@H]2C1` [JP-S5], the IC50 came to 0.5 µM. Take `Cc1c(Cl)cccc1-c1ccc([C@H]2C3CN(S(=O)(=O)c4ccccc4C(F)(F)F)C/C=C\CN3[C@@H]2CF)cc1` (stereo partly drawn) [JP-38]: the IC50 turned out to be 0.06 µM. The same measure, in the same setting: then `Cc1cccc(-c2ccc(C3CCN(S(=O)(=O)c4ccc(F)c5ncccc45)CC3)cc2)c1C` [A07], with 3 µM; and `Cc1cccc(-c2ccc(C3CCN(S(=O)(=O)c4cccc(Oc5ccc(F)cc5)c4)CC3)cc2)c1C` [A05], with 9 µM; and `Cc1ccc(C)c(-c2ccc([C@@H]3[C@@H](CO)N4CCCCN(S(=O)(=O)c5ccccc5C)C[C@@H]34)cc2)c1` [K13], with 0.09 µM. Same read-out and setting: the figure for `Cc1cccc(-c2ccc(C3CCN(S(=O)(=O)c4ccc5c(c4)Cc4ccccc4-5)CC3)cc2)c1C` [A08] is 25 µM. The same measure, in the same setting: the figure for `Cc1cccc(-c2ccc([C@@H]3[C@@H](CO)N4CCCCN(S(=O)(=O)c5ccccc5C)C[C@@H]34)cc2)c1` [B2] is 0.4 µM.

On to `Cc1cccc(-c2ccc(C3CCN(Cc4cccc(Oc5ccccc5)c4)CC3)cc2)c1C` [A32], for which the IC50 was 12 µM. Same read-out and setting: then `COc1ccc(-c2ccc([C@@H]3[C@@H](CO)N4CCCCN(S(=O)(=O)c5ccccc5C)C[C@@H]34)cc2)c(C)c1` [K17], with 0.9 µM; and `Cc1ccccc1S(=O)(=O)N1CCN(c2ccc(-c3cccc(C)c3C)cc2)CC1` [J1], with 1 µM; and `Cc1cccc(-c2ccc(C3CCN(C(=O)c4ccccc4Oc4ccccc4)CC3)cc2)c1C` [A23], with 10 µM.

Regarding `Cc1cccc(-c2ccc([C@H]3C4CN(S(=O)(=O)c5cccnc5C)C/C=C\CN4[C@@H]3CO)cc2)c1C` (stereo partly drawn) [JP-S21], the IC50 is 0.02 µM. On the same count and under the same terms, then `Cc1cccc(-c2ccc(C3CCN(C(=O)c4ccc5c(c4)C4(OC5=O)c5ccc(O)cc5Oc5cc(O)ccc54)CC3)cc2)c1C` [A40], with 12 µM; and `Cc1cc2c(cc1S(=O)(=O)N1CCC(c3ccc(-c4cccc(C)c4C)cc3)CC1)OCC(=O)N2` [A13], with 10 µM.

As to `CNC[C@@H]1[C@@H](c2ccc(-c3cccc(C)c3C)cc2)[C@@H]2CN(S(=O)(=O)c3ccccc3C(F)(F)F)CCCCN12` [JP-17-NHMe], the IC50 worked out at 0.007 µM. Same read-out and setting: then `Cc1ccccc1S(=O)(=O)N1CCCCN2[C@H](CF)[C@@H](c3ccc(-c4cccc(C)c4C)cc3)[C@@H]2C1` [K28], with 0.05 µM; and `Cc1cc(C)cc(-c2ccc([C@@H]3[C@@H](CO)N4CCCCN(S(=O)(=O)c5ccccc5C)C[C@@H]34)cc2)c1` [K10], with 0.1 µM.

Regarding `Cc1cccc(-c2ccc([C@H]3C4CNC/C=C\CN4[C@@H]3CO)cc2)c1C` (stereo partly drawn) [Int211], the IC50 was above 10 µM. The same measure, in the same setting: the figure for `Cc1cccc(-c2ccc([C@H]3C4CN(S(=O)(=O)c5cnc6n5CCCCC6)C/C=C\CN4[C@@H]3CO)cc2)c1C` (stereo partly drawn) [JP-S17] is 0.09 µM; for `Cc1cccc(-c2ccc(C3CCN(S(=O)(=O)c4cc(C(F)(F)F)cc(C(F)(F)F)c4)CC3)cc2)c1C` [A18] it is 12 µM; for `COc1ccc(C(=O)N2CCC(c3ccc(-c4cccc(C)c4C)cc3)CC2)c(OC)c1` [A21] it is 1 µM. Same read-out and setting: the figure for `Cc1cccc(-c2ccc([C@H]3C4CN(S(=O)(=O)c5cn(C)nc5C(F)(F)F)C/C=C\CN4[C@@H]3CO)cc2)c1C` (stereo partly drawn) [JP-S20] is 0.03 µM; for `Cc1ccccc1S(=O)(=O)N1CCCCN2[C@H](CO)[C@@H](c3ccccc3)[C@@H]2C1` [K2] it is above 100 µM. Turning to `Cc1ccccc1S(=O)(=O)N1C/C=C\CN2C(C1)[C@H](c1ccc(-c3cccc(Cl)c3C)cc1)[C@H]2CO` (stereo partly drawn) [JP-28], the IC50 amounted to 0.003 µM. The same measure, in the same setting: the figure for `Cc1cccc(-c2ccc(C3CCN(C(=O)C4c5ccccc5-c5ccccc54)CC3)cc2)c1C` [A27] is 12 µM; for `COC[C@@H]1[C@@H](c2ccc(-c3cccc(C)c3C)cc2)[C@@H]2CN(S(=O)(=O)c3ccnn3C(C)C)CCCCN12` [JP-S10-OMe] it is above 0.2 µM. The same measure, in the same setting: then `Cc1cccc(-c2ccc(N3CCN(C(=O)C4CCCCC4)CC3)cc2)c1C` [J9], with 2.5 µM; and `COC[C@@H]1[C@@H](c2ccc(-c3cccc(C)c3C)cc2)[C@@H]2CN(S(=O)(=O)c3ccccc3C(F)(F)F)CCCCN12` [JP-17-OMe], with 0.05 µM.

The same assay, now with this note: fluorogenic peptide Mca-RPPGFSAFK(Dnp)-OH; plateau at high inhibitor concentration.
Consider `Cc1cccc(-c2ccc([C@@H]3[C@@H](CO)N4CCCCN(S(=O)(=O)c5ccccc5C)C[C@@H]34)cc2)c1` [B2], for which the “Imax (%) Proteolysis (inhibition maximum)” value amounted to 65%.

The assay is the same for the next values; noted with them: fluorogenic peptide Mca-RPPGFSAFK(Dnp)-OH; plateau at high inhibitor concentration; read-out: Imax (%) Proteolysis (inhibition maximum).
For `Cc1ccccc1S(=O)(=O)N1CCCCN2C(C1)[C@H](c1ccc(-c3cccc(O)c3)cc1)[C@H]2CO` (stereo partly drawn) [K8], the Emax was determined as 100%. On to `Cc1ccc(C)c(-c2ccc([C@H]3C4CN(S(=O)(=O)c5ccccc5C)CCCCN4[C@@H]3CO)cc2)c1` (stereo partly drawn) [K13], for which the Emax is 65%.

Take `Cc1cc(C)cc(-c2ccc([C@H]3C4CN(S(=O)(=O)c5ccccc5C)CCCCN4[C@@H]3CO)cc2)c1` (stereo partly drawn) [K10]: the Emax was found to be 72%. The same measure, in the same setting: the figure for `COc1ccccc1-c1ccc([C@@H]2[C@@H](C#N)N(C(=O)CN(C)C)[C@H]2CO)cc1` [D6] is 70%.

Take `O=C(NC1CCCC1)N1CCCCN2[C@@H](CO)[C@H](c3ccc(/C=C/c4ccccc4)cc3)[C@@H]2C1` [compound 346]: the Emax turned out to be 80%. As for `Cc1cc(C)cc(-c2ccc([C@@H]3[C@@H](CO)N4CCCCN(S(=O)(=O)c5ccccc5C)C[C@@H]34)cc2)c1` [B9], the Emax stood at 72%.

The same assay, now with this note: fluorogenic peptide, FIG. 12; read-out: IC50 for proteolysis.
Regarding `Cc1ccccc1S(=O)(=O)N1CCCCN2[C@H](CO)[C@@H](c3ccc(-c4cccc(C)c4C)cc3)[C@@H]2C1` [B8], the half-inhibitory concentration (IC50) was 0.002 µM.

As usually defined, the IC50 is the concentration needed to halve the response being measured.
